Assay results taken from US10662168B2, “Compounds for treating parasitic infections” (University of Maryland, College Park, priority 2015, dated 2020).
Like-named read-outs stand apart in the source and are kept apart here.

What was measured:
[1] = system: intracellular L. donovani; details: cited from earlier work
[2] = system: intracellular forms of Leishmania (L. amazonensis amastigotes in BMDMs); details: benchmark value; read-out: IC50 against intra-macrophage L. amazonensis; cited from earlier work
P-gp = P-gp (Homo sapiens, UniProt P08183); experiment: Drug-like parameters: P-gp efflux; type: in vitro ADME
Chain of P-gp (P08183 whole entry): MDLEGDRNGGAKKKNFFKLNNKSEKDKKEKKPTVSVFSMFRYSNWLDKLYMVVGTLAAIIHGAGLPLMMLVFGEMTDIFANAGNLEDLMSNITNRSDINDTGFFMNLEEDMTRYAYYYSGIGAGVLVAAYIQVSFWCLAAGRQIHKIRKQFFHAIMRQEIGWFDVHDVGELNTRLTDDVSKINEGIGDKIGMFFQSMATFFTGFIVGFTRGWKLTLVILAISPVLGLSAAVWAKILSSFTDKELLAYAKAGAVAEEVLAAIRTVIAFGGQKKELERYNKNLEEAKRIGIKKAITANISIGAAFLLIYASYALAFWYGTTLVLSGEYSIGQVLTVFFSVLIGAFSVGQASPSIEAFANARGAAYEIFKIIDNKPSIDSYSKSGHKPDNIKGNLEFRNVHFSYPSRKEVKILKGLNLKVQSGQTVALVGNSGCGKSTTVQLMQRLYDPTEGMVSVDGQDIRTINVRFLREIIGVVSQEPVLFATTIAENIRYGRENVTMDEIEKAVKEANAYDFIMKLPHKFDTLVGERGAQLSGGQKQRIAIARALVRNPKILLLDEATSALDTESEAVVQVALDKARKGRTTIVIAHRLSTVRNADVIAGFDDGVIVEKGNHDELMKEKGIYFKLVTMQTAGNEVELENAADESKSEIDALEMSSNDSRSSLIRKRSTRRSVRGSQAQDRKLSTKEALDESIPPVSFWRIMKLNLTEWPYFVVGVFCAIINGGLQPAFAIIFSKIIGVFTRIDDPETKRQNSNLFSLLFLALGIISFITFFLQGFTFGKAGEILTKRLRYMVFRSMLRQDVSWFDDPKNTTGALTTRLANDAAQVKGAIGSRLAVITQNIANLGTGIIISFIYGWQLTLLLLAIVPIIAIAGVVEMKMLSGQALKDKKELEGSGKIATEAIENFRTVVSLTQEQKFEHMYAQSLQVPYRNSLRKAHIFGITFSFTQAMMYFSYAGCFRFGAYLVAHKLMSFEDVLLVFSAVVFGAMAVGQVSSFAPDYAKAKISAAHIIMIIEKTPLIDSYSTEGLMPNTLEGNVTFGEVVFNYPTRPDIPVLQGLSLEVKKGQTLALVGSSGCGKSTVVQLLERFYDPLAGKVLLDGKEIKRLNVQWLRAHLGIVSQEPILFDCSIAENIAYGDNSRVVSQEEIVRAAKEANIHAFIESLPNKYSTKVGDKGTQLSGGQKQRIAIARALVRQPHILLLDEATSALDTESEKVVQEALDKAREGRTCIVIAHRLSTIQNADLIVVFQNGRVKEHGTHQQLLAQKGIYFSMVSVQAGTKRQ

[3] = Drug-like parameters: absorption and metabolic stability; type: in vitro ADME
BMDMs = experiment: Toxicity to uninfected host BMDMs (AlamarBlue viability); type: cell-based, mouse; details: even at 40-fold greater concentrations
Protocol: (§1) FIG. 5. Dose response curves (IC50) of FX40 (∘) and the novel derivative compound FX104 (●). (A) BMDMs infected with L. amazonensis amastigotes were treated with various concentrations of the indicated compound for 72 h. BMDMs were lysed and released amastigotes were transformed to promastigotes for 48 h at 26° C. IC50 values were calculated by quantitation of % promastigote growth using AlamarBlue. (B) Dose response of uninfected BMDMs to compounds. (C) A table showing selectivity criteria for drug efficacy studies. (D) A table showing a summary of high throughput screening.
(§2) To validate the […] efficacy of lead compounds against intracellular amastigotes in macrophages, primary bone marrow-derived macrophages (BMDMs) from mice were obtained and infected them with L. amazonensis amastigotes followed by incubation for 72 h with LHR1 antagonists or amphotericin B which kills intracellular Leishmania, as a positive control. Cells were then fixed and stained with DAPI which permits visualization of the host macrophage nuclei and parasite nuclei and kinetoplasts. Images collected with fluorescent microscopy were used to determine the ratio between total number of parasites and total number of host cells per treatment. Toxicity to host cells were measured by AlamarBlue viability assays. […] (Sch. 1 and FIG. 4A) The structure of FX104 is shown in Scheme 1.

[4] = Drug-like parameters: Log P and solubility; type: physicochemical
[5] = system: intracellular forms of Leishmania (L. amazonensis amastigotes in BMDMs); experiment: Dose response in BMDMs infected with L. amazonensis amastigotes, released amastigotes transformed to promastigotes, AlamarBlue; type: cell-based
Protocol: as §1, §2

| Structure (SMILES) | IC50 ([1]; benchmark value, read-out: IC50 for intra-macrophage L. donovani) [µM] | efficacy ([1]; benchmark, intra-macrophage Leishmania) [%] | IC50 [2] [µM] | P-gp efflux (P-gp) | absorption [3] | metabolic stability [3] | toxicity in BMDMs (BMDMs) | solubility [4] | IC50 ([5]; BMDM, BMDMs infected with L. amazonensis amastigotes, 72 h, read-out: IC50 against intracellular forms of Leishmania) [µM] | fold more effective against intracellular forms of Leishmania than FX40 ([5]; FX104 versus FX40) |
| --- | --- | --- | --- | --- | --- | --- | --- | --- | --- | --- |
| C[C@@H]1[C@H](O)[C@@H](C)/C=C/C=C/C=C/C=C/C=C/C=C/C=C/[C@H](O[C@@H]2O[C@H](C)[C@@H](O)[C@H](N)[C@@H]2O)C[C@@H]2O[C@](O)(C[C@@H](O)C[C@@H](O)[C@H](O)CC[C@@H](O)C[C@@H](O)CC(=O)O[C@H]1C)C[C@H](O)[C@H]2C(=O)O [Amphotericin B] | 0.02 to 0.06 | > 90 | 0.05 to 0.1 | – | – | – | – | – | – | – |
| Cc1ccc([C@]2(NCCN(C)C)OC(=O)c3cccc(F)c32)cc1C [FX104] | – | – | – | decreased | better | better | little or no toxicity | better | 0.25 | over 30 fold |
